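96-well plates; 48 h exposure; 5 concentrations. Endpoints by linear interpolation between flanking doses. Not reached: highest tested concentration assigned. GI50: concentration for 50% inhibition of growth.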 Activity calls are given as the source filed them. Rule as the data show it: active = GI50 up to about 1.1 µM and inactive = higher.
Experiments:
Assay in all cases: NCI-60 cell line screen, 48 h
[1] = test system: NCI-H23
[2] = test system: KM-20L2
[3] = test system: DLD-1
[4] = test system: U-251
[5] = test system: K562
[6] = test system: ACHN
[7] = test system: HCT-116
[8] = test system: A498
[9] = test system: TK-10
[10] = test system: SNB-78
[11] = test system: CCRF-CEM
[12] = test system: NCI-H226
[13] = test system: XF498
[14] = test system: Malme-3M
[15] = test system: SW-620
[16] = test system: M14
[17] = test system: KM12
[18] = test system: DMS-273
[19] = test system: SNB-19
[20] = test system: IGROV-1
[21] = test system: UACC-62
[22] = test system: RXF 393
[23] = test system: HOP-18
[24] = test system: 786-0
[25] = test system: A549
[26] = test system: SNB-75
[27] = test system: CAKI-1
[28] = test system: HOP-92
[29] = test system: RXF 631
[30] = test system: UACC-257
[31] = test system: OVCAR-3
[32] = test system: COLO 205
[33] = test system: UO-31
[34] = test system: MOLT-4
[35] = test system: HT-29
[36] = test system: SK-MEL-2
[37] = test system: OVCAR-5
[38] = test system: RPMI-8226
[39] = test system: SR
[40] = test system: SK-OV-3
[41] = test system: NCI-H522
[42] = test system: M19-MEL
[43] = test system: SK-MEL-5
[44] = test system: SF-295
[45] = test system: SF-539
[46] = test system: OVCAR-4
[47] = test system: SN12C
[48] = test system: SF-268
[49] = test system: DMS-114
[50] = test system: LOX IMVI
[51] = test system: HL-60
[52] = test system: SK-MEL-28
[53] = test system: OVCAR-8
[54] = test system: NCI-H460
[55] = test system: LXFL 529
[56] = test system: HCT-15
[57] = test system: EKVX
[58] = test system: HCC 2998
[59] = test system: HOP-62

Compound: COc1ccc([Se]c2ccc(OC)cc2OC)c(OC)c1
- GI50 [1]: 29.9 µM (inactive)
- GI50 [2]: 8.38 µM (inactive)
- GI50 [3]: 17.4 µM (inactive)
- GI50 [4]: 21.6 µM (inactive)
- GI50 [5]: 10.5 µM (inactive)
- GI50 [6]: 45.3 µM (inactive)
- GI50 [7]: 12.1 µM (inactive)
- GI50 [8]: 18.7 µM (inactive)
- GI50 [9]: 28.4 µM (inactive)
- GI50 [10]: 22.6 µM (inactive)
- GI50 [11]: 20.2 µM (inactive)
- GI50 [12]: 20 µM (inactive)
- GI50 [13]: 24.9 µM (inactive)
- GI50 [14]: 14.9 µM (inactive)
- GI50 [15]: 4.66 µM (inactive)
- GI50 [16]: 18.4 µM (inactive)
- GI50 [17]: 17.4 µM (inactive)
- GI50 [18]: 3.85 µM (inactive)
- GI50 [19]: 86.7 µM (inactive)
- GI50 [20]: 5.37 µM (inactive)
- GI50 [21]: 11.1 µM (inactive)
- GI50 [22]: 18.2 µM (inactive)
- GI50 [23]: 20.2 µM (inactive)
- GI50 [24]: 40.5 µM (inactive)
- GI50 [25]: 10.8 µM (inactive)
- GI50 [26]: 9.02 µM (inactive)
- GI50 [27]: 19.5 µM (inactive)
- GI50 [28]: 2.2 µM (inactive)
- GI50 [29]: 22.1 µM (inactive)
- GI50 [30]: 61.2 µM (inactive)
- GI50 [31]: 32 µM (inactive)
- GI50 [32]: 11.4 µM (inactive)
- GI50 [33]: 18 µM (inactive)
- GI50 [34]: 5.36 µM (inactive)
- GI50 [35]: 4.58 µM (inactive)
- GI50 [36]: 17.5 µM (inactive)
- GI50 [37]: > 100 µM (inactive)
- GI50 [38]: 20.7 µM (inactive)
- GI50 [39]: 6.22 µM (inactive)
- GI50 [40]: 34.3 µM (inactive)
- GI50 [41]: 13 µM (inactive)
- GI50 [42]: 9.46 µM (inactive)
- GI50 [43]: 22.2 µM (inactive)
- GI50 [44]: 8.57 µM (inactive)
- GI50 [45]: 22.6 µM (inactive)
- GI50 [46]: 21.9 µM (inactive)
- GI50 [47]: 36.4 µM (inactive)
- GI50 [48]: 35.6 µM (inactive)
- GI50 [49]: 3.44 µM (inactive)
- GI50 [50]: 24.6 µM (inactive)
- GI50 [51]: 5.38 µM (inactive)
- GI50 [52]: 15.8 µM (inactive)
- GI50 [53]: 33.6 µM (inactive)
- GI50 [54]: 19.6 µM (inactive)
- GI50 [55]: 30.1 µM (inactive)

Compound: CSc1nc(NC2OC(COC(C)=O)C(OC(C)=O)C(OC(C)=O)C2OC(C)=O)c(/N=C/C=N/c2c(NC3OC(COC(C)=O)C(OC(C)=O)C(OC(C)=O)C3OC(C)=O)nc(SC)[nH]c2=O)c(=O)[nH]1 (centres undefined)
- GI50 [1]: > 100 µM (inactive)
- GI50 [2]: > 100 µM (inactive)
- GI50 [3]: > 100 µM (inactive)
- GI50 [4]: > 100 µM (inactive)
- GI50 [5]: > 100 µM (inactive)
- GI50 [6]: > 100 µM (inactive)
- GI50 [7]: > 100 µM (inactive)
- GI50 [8]: > 100 µM (inactive)
- GI50 [9]: > 100 µM (inactive)
- GI50 [10]: > 100 µM (inactive)
- GI50 [14]: > 100 µM (inactive)
- GI50 [15]: > 100 µM (inactive)
- GI50 [16]: > 100 µM (inactive)
- GI50 [17]: > 100 µM (inactive)
- GI50 [18]: > 100 µM (inactive)
- GI50 [19]: > 100 µM (inactive)
- GI50 [20]: > 100 µM (inactive)
- GI50 [21]: > 100 µM (inactive)
- GI50 [22]: > 100 µM (inactive)
- GI50 [23]: > 100 µM (inactive)
- GI50 [24]: > 100 µM (inactive)
- GI50 [25]: > 100 µM (inactive)
- GI50 [26]: > 100 µM (inactive)
- GI50 [28]: > 100 µM (inactive)
- GI50 [56]: > 100 µM
- GI50 [29]: > 100 µM (inactive)
- GI50 [30]: > 100 µM (inactive)
- GI50 [31]: > 100 µM (inactive)
- GI50 [32]: > 100 µM (inactive)
- GI50 [33]: > 100 µM (inactive)
- GI50 [35]: > 100 µM (inactive)
- GI50 [36]: > 100 µM (inactive)
- GI50 [37]: > 100 µM (inactive)
- GI50 [38]: > 100 µM (inactive)
- GI50 [39]: > 100 µM (inactive)
- GI50 [40]: > 100 µM (inactive)
- GI50 [57]: > 100 µM (inactive)
- GI50 [41]: > 100 µM (inactive)
- GI50 [42]: > 100 µM (inactive)
- GI50 [43]: > 100 µM (inactive)
- GI50 [44]: > 100 µM (inactive)
- GI50 [45]: > 100 µM (inactive)
- GI50 [58]: > 100 µM (inactive)
- GI50 [46]: > 100 µM (inactive)
- GI50 [47]: > 100 µM (inactive)
- GI50 [48]: > 100 µM (inactive)
- GI50 [49]: > 100 µM (inactive)
- GI50 [59]: > 100 µM (inactive)
- GI50 [50]: > 100 µM (inactive)
- GI50 [51]: > 100 µM (inactive)
- GI50 [52]: > 100 µM (inactive)
- GI50 [53]: > 100 µM (inactive)
- GI50 [54]: > 100 µM (inactive)
- GI50 [55]: > 100 µM (inactive)
